The test system of one experiment is human PRP. The experiment in a line: Human platelet aggregation inhibition test. It is filed as cell-based. As to conditions: ADP-induced aggregation (1×10^−5 M ADP) in human platelet-rich plasma. Here is the method:
Blood collected from healthy human volunteers in aqueous trisodium citrate solution was centrifuged at 150 g for 15 min and the upper layer was recovered to obtain platelet-rich plasma (PRP). The residual blood was centrifuged at 3000 g for 10 min and the supernatant was collected as platelet-poor plasma (PPP). Platelet concentration in the PRP was determined using the Z series Beckman Coulter particle counter (Beckman, Fullerton, Calif.) and adjusted to 250,000 platelets/μL using PPP. 480 μL of PRP was pre-incubated at 37° C. and stirred at 1200 rpm with 10 μL aqueous test compound solution for 1 min prior to induction of aggregation by the addition of 10 μL of aqueous adenosine diphosphate (ADP) solution to adjust the final ADP concentration in the PRP to 1×10^−5 M. The maximal amplitude of aggregation response within 3 min was determined and measured in triplicate using the Chronolog model 490 aggregometer (Chrono-log Corp., Havertown, Pa.). Percent inhibition of aggregation was calculated from the maximum decrease in optical density of the control (addition of water in place of the test compound solution) sample and of the samples containing test compound. The test compound was added to adjust the final concentration to the range 10^−9 to 10^−4 M, and IC50 values were determined by inhibition percentage of aggregation at each concentration.

Experiment [1] concerns the target human prostacyclin (PGI2) receptor (Homo sapiens (Human), UniProt P43119). The experiment in a line: HTRF assay for direct cAMP measurement. Format: cell-based. To be noted: recombinant CHO-K1 cells stably transfected with human prostacyclin receptor; cAMP increase. The text has this:
Compounds were screened for agonists of the human prostacyclin (PGI2) receptor using the HTRF® assay for direct cAMP measurement (Gabriel et al., ASSAY and Drug Development Technologies, 1:291-303, 2003) and recombinant CHO-K1 cells stably transfected with human prostacyclin receptor. CHO-K1 cells were obtained from ATCC® (Manassas, Va.; Catalog # CCL-61). An agonist of the prostacyclin receptor was detected in HTRF® assay for direct cAMP measurement as a compound which increased cAMP concentration. HTRF® assay also was used to determine EC50 values for prostacyclin receptor agonists.
The HTRF® assay kit was purchased from Cisbio-US, Inc. (Bedford, Mass.; Catalog #62AM4PEC). The HTRF® assay supported by the kit is a competitive immunoassay between endogenous cAMP produced by the CHO-K1 cells and tracer cAMP labeled with the dye d2. The tracer binding is visualized by a monoclonal anti-cAMP antibody labeled with Cryptate. The specific signal (i.e., fluorescence resonance energy transfer, FRET) is inversely proportional to the concentration of unlabeled cAMP in the standard or sample.
The fluorescence ratio (665 nm/620 nm) of the standards (0.17 to 712 nM cAMP) included in the assay was calculated and used to generate a cAMP standard curve according to the kit manufacturer's instructions. The fluorescence ratio of the samples (test compound or compound buffer) was calculated and used to deduce respective cAMP concentrations by reference to the cAMP standard curve.
The HTRF® assay was carried out using a two-step protocol essentially according to the kit manufacturer's instructions, in 20 μL total volume per well in 384-well plate format (ProxiPlates; PerkinElmer, Fremont, Calif.; catalog #6008280). To each of the experimental wells was transferred 3000 recombinant CHO-K1 cells in 5 μL assay buffer (phosphate buffered saline containing calcium chloride and magnesium chloride (Invitrogen, Carlsbad, Calif.; catalog #14040) supplemented with IBMX ([…]) and rolipram ([…]) (phosphodiesterase inhibitors; Sigma-Aldrich, St. Louis, Mo.; catalog #15879 and catalog # R6520, respectively) and 0.1% bovine serum albumin (BSA) fraction V (Sigma-Aldrich; catalog # A3059)), followed by test compound in 5 μL assay buffer or 5 μL assay buffer. The plate was then incubated at room temperature for 1 h. To each well was then added 5 μL cAMP-d2 conjugate in lysis buffer and 5 μL Cryptate conjugate in lysis buffer according to the kit manufacturer's instructions. The plate was then further incubated at room temperature for 1 h, after which the assay plate was read.
The HTRF® readout was accomplished using a PHERAstar (BMG LABTECH Inc., Durham, N.C.) or EnVision™ (PerkinElmer, Fremont Calif.) microplate reader.
In general terms: In TR-FRET formats the signal depends on donor and acceptor labels being close together.

Experiment [2] deals with MCT-induced pulmonary arterial hypertension in rat. Briefly: Rat monocrotaline (MCT) model of pulmonary arterial hypertension. To be noted: 30 mg/kg oral gavage twice a day for 21 days, male Wistar rats, 60 mg/kg MCT s.c.; FIG. 1. It is filed as in vivo. The method, then:
Male Wistar rats (100-150 g at start of study) (Charles River Laboratories, Wilmington, Mass.) were housed two per cage and maintained in a humidity-(40-60%) and temperature-(68-72° F.) controlled facility on a 12 hr: 12 hr light/dark cycle (lights on at 6:30 am) with free access to food (Harlan Teklad, Orange Calif., Rodent Diet 8604) and water. Rats were allowed one week of habituation to the animal facility before testing.
The rat monocrotaline (MCT) model is a standard and well-accepted model of pulmonary arterial hypertension. MCT induces acute pulmonary endothelial damage associated with pulmonary vascular inflammation. […]
Rats were randomly given a single subcutaneous injection of either 60 mg/kg MCT (Sigma, St. Louis, Mo.) or 0.9% saline (sham) and assigned to receive oral administration of 20% hydroxypropyl beta-cyclodextrin (vehicle) or test compound (30 mg/kg; FIG. 1). […] Heart chamber weights were measured on Day 22. […] The ratio of right ventricular (RV) weight to left ventricle plus septum (LV+S) weight (this ratio is indicated as “RV/(LV+S)” in FIG. 1) was calculated as an index of the hypertrophic response to the induced pulmonary arterial hypertension and, as such, as an index of a test compound's therapeutic efficacy for pulmonary arterial hypertension.

Each structure is given as a SMILES string.

Chain of human prostacyclin (PGI2) receptor (P43119 whole entry): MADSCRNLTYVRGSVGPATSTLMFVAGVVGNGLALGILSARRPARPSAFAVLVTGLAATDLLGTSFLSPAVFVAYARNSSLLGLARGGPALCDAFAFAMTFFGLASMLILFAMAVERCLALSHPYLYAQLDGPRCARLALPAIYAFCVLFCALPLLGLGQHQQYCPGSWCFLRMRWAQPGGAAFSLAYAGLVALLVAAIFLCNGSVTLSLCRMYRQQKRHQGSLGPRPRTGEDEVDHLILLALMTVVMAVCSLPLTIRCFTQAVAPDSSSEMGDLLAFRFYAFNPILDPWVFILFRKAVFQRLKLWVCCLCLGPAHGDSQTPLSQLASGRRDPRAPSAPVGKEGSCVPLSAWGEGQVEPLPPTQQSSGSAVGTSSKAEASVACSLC

A word on the IC50: it is the concentration at which inhibition is half-maximal. Higher therefore signals weaker potency. In the experiment on human PRP, `O=C(O)COC[C@H]1CC[C@@H](Cn2nc(-c3ccccc3)c(-c3cccc(F)c3F)cc2=O)CC1` [Compound 8, 2-(((1s,4s)-4-((4-(2,3-difluorophenyl)-6-oxo-3-phenylpyridazin-1(6H)-yl)methyl)cyclohexyl)methoxy)acetic acid] yielded an IC50 of 67 nM. A word on the EC50: it is the concentration at which the effect is half-maximal. Take `COc1ccc(-c2nn(C[C@H]3CC[C@@H](COCC(=O)O)CC3)c(=O)nc2-c2ccccc2)cc1` [Compound 69, 2-(((1s,4s)-4-((6-(4-methoxyphenyl)-3-oxo-5-phenyl-1,2,4-triazin-2(3H)-yl)methyl)cyclohexyl)methoxy)acetic acid]: the EC50 in experiment [1] came to 8 nM. The IC50 in the experiment on human PRP was 22 nM.

Take `Cc1ccc(-c2nn(C[C@H]3CC[C@@H](COCC(=O)O)CC3)c(=O)nc2-c2ccccc2)cc1` [Compound 68, 2-(((1s,4s)-4-((3-oxo-5-phenyl-6-p-tolyl-1,2,4-triazin-2(3H)-yl)methyl)cyclohexyl)methoxy)acetic acid]: the “right ventricle hypertrophic response, RV/(LV+S)” value in experiment [2] is “inhibited the hypertrophic response”. For the molecule `O=C(O)COC[C@H]1CC[C@@H](Cn2nc(-c3ccccc3)c(-c3cccc(Cl)c3F)cc2=O)CC1` [Compound 31, 2-(((1s,4s,)-4-((4-(3-chloro-2-fluorophenyl)-6-oxo-3-phenylpyridazin-1(6H)-yl)methyl)cyclohexyl)methoxy)acetic acid], the EC50 in experiment [1] worked out at 31 nM. For the same molecule, half-maximal inhibition in the experiment on human PRP (IC50) was put at 21 nM. With `O=C(O)COC[C@H]1CC[C@@H](Cn2nc(-c3ccccc3)c(-c3cccc(Cl)c3)nc2=O)CC1` [Compound 67, 2-(((1s,4s)-4-((5-(3-chlorophenyl)-3-oxo-6-phenyl-1,2,4-triazin-2(3H)-yl)methyl)cyclohexyl)methoxy)acetic acid], the EC50 in experiment [1] was 73 nM. As to `Cc1ccc(-c2nc(=O)n(C[C@H]3CC[C@@H](COCC(=O)O)CC3)nc2-c2ccc(C)cc2)cc1` [Compound 43, 2-(((1s,4s)-4-((3-oxo-5,6-di-p-tolyl-1,2,4-triazin-2(3H)-yl)methyl)cyclohexyl)methoxy)acetic acid], the EC50 in experiment [1] was 36 nM. The same molecule gave a half-maximal inhibitory concentration (IC50) in the experiment on human PRP of 130 nM.

The values above are taken from US10793529B2, “Substituted pyridazines and 1,2,4-triazines as prostacyclin receptor modulators” (Arena Pharmaceuticals, Inc., priority 2008, dated 2020).
